Measurements published in PubChem BioAssay (NCI).
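Test compounds were applied to cells in 96-well plates for 48 hours at 5 doses. GI50 = concentration required for 50% inhibition of growth. TGI denotes the concentration required for complete inhibition of growth.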

Legend:
Assay in all cases: NCI tumour cell line growth inhibition, 48 h
MDA-N = tested on: MDA-N
XF 498 CNS = tested on: XF 498 CNS
KM20L2 colon = tested on: KM20L2 colon
SNB-78 CNS = tested on: SNB-78 CNS
HOP-18 NSCLC = tested on: HOP-18 NSCLC
DMS 114 small cell lung = tested on: DMS 114 small cell lung
LXFL 529 NSCLC = tested on: LXFL 529 NSCLC
DMS 273 small cell lung = tested on: DMS 273 small cell lung
RXF-631 renal = tested on: RXF-631 renal

Row | SMILES | TGI (XF 498 CNS) [µM] | TGI (KM20L2 colon) [µM] | TGI (SNB-78 CNS) [µM] | TGI (HOP-18 NSCLC) [µM] | TGI (DMS 114 small cell lung) [µM] | TGI (LXFL 529 NSCLC) [µM] | TGI (DMS 273 small cell lung) [µM] | TGI (RXF-631 renal) [µM] | further results
1 | Cc1cc(Cl)cc2c(N=Nc3ccccc3[N+](=O)[O-])c(O)[nH]c12 |  |  |  |  |  |  |  |  | TGI (MDA-N): > 100 µM
2 | Nc1nc2sc3ccccc3c(=O)n2n1 | > 100 | > 100 | > 100 | > 100 | > 100 | > 100 | > 100 |  | 
3 | Cc1nc(-c2ccccc2)c(Cc2ccccc2O)c(=O)[nH]1 |  |  |  |  |  |  |  |  | TGI (MDA-N): > 100 µM
4 | Cc1oc2c(C)c3oc(=O)cc(C)c3cc2c1CNC(=O)[C@@H]1OCCOCCOCCOCCOCCOC1C(=O)O (stereo partly drawn) |  | > 100 | > 100 | > 100 | > 100 | 27.7 | > 100 | > 100 | 
5 | CN(C)CCN(C)CC1COC(C)(C)O1 (stereo not drawn) | > 100 | > 100 | > 100 | > 100 |  | > 100 | > 100 |  | 
6 | CCC1C(=O)OCc2c1cc1n(c2=O)Cc2cc3ccccc3nc2-1 (stereo not drawn) |  |  |  |  |  |  |  |  | TGI (MDA-N): > 100 µM
7 | CSc1cccc(-n2c3nc(=O)n(C)c(=O)c-3nc3ccccc32)c1 | 13.4 | 15.4 | 43.7 | 26.2 | 14.9 | 26.2 | 13.2 |  | 
8 | COc1ccc(NC(=O)CC(=O)N2N=C(N(CCC#N)c3ccccc3Cl)CC2c2ccccc2)cc1 (stereo not drawn) | > 100 | > 100 | > 100 | > 100 | > 100 | > 100 | > 100 | > 100 | 
9 | COc1ccc2c(c1)C(=O)N1CCOC1C2C(=O)O (stereo not drawn) | > 100 | > 100 | > 100 | > 100 | > 100 | > 100 | 11.2 | > 100 | 
10 | NC(=O)C#CC#CC#CCO |  | 27.3 | 7.03 | 3.28 | 3.6 | 2.35 | 4.1 |  | 
11 | COC(=O)C1CCC(Nc2ccc(C)cc2C)=N1 (stereo not drawn) | > 100 | > 100 | > 100 | > 100 |  | > 100 | > 100 | > 100 | 
12 | C=C(C)C1Cc2c(cc(OC)c3c(=O)c4cccc(O)c4oc23)O1 (stereo not drawn) |  |  |  |  |  |  |  |  | TGI (MDA-N): 53.1 µM
13 | CS(=O)(=O)OCC1OC(n2ccc(NC(=O)c3ccccc3)nc2=O)CC1OS(C)(=O)=O (stereo not drawn) |  |  |  |  |  |  |  |  | TGI (MDA-N): > 100 µM
14 | N#CC(C(=O)/C(=N/NC(=O)c1ccccc1O)C(C#N)c1ccccc1)c1ccccc1 (stereo not drawn) | > 100 | > 100 | > 100 | > 100 | > 100 | > 100 | > 100 | > 100 | 
15 | CCCCCCCC(=O)NCC(O)CNC(=O)CCCCCCC | > 100 | > 100 | > 100 | > 100 | > 100 | > 100 | > 100 |  | 
16 | N#CC(/C(=N/NC(=O)C(=O)NN)C(=O)Nc1nc([N+](=O)[O-])cs1)c1ccc(Cl)cc1 (stereo not drawn) | > 100 | > 100 | > 100 |  | > 100 | > 100 |  |  | 
17 | CC1OC(n2ccc(=O)[nH]c2=O)C=C(OC(=O)c2ccccc2)C1=O (stereo not drawn) | > 100 | > 100 | > 100 | > 100 |  |  | > 100 |  | 
18 | [Cl][Sn]([Cl])([c]1ccccc1)[c]1ccccc1 | 6.21 | 28 | 56.7 | 31.8 | > 100 | 2.93 |  |  | GI50 (XF 498 CNS): 2.58 µM; GI50 (KM20L2 colon): 14.8 µM; GI50 (SNB-78 CNS): 9.33 µM; GI50 (HOP-18 NSCLC): 17.9 µM; GI50 (DMS 114 small cell lung): 2.67 µM; GI50 (LXFL 529 NSCLC): 1.53 µM
19 | Cc1ccccc1C1=[N+]([O-])c2ccccc2C1=O | 31.3 | 32.9 |  | 54.4 | 27.4 | 28.3 |  | 42.8 | 
20 | CCOc1ccc(NC(=O)C2=C(C)NC(C)=C(C(=O)Nc3ccc(OCC)cc3)C2c2ccc(O)c(OC)c2)cc1 | 52 | > 100 | > 100 |  | > 100 | > 100 |  | > 100 | 

Row | SMILES | TGI (XF 498 CNS) [µM] | TGI (KM20L2 colon) [µM] | TGI (SNB-78 CNS) [µM] | TGI (HOP-18 NSCLC) [µM] | TGI (DMS 114 small cell lung) [µM] | TGI (LXFL 529 NSCLC) [µM] | TGI (DMS 273 small cell lung) [µM] | TGI (RXF-631 renal) [µM] | further results
21 | Nc1nc(NCCO)c(N=O)c(=O)[nH]1 | > 100 | > 100 | > 100 | > 100 | > 100 | > 100 | > 100 |  | 
22 | Cc1ccccc1C1OC(=O)c2ccccc21 (stereo not drawn) |  | > 100 | > 100 | > 100 | > 100 | > 100 | > 100 | > 100 | 
23 | CCOC(=O)/C(=N\OC)C(O)C(F)(F)F (stereo not drawn) |  |  |  |  |  |  |  |  | TGI (MDA-N): > 100 µM
24 | O=C(C=Nc1ccccc1C(=O)[O-])c1cccs1.O=C(C=Nc1ccccc1C(=O)[O-])c1cccs1.[Co+2] |  | > 100 |  | > 100 |  |  |  |  | 
25 | CCCOC(=O)C1CCC(=O)N1C(=O)C(C)Cl (stereo not drawn) | > 100 | > 100 | > 100 | > 100 | > 100 | > 100 | > 100 |  | 
26 | CC1=C(/C=C/C(=O)O)C(C)(C)CCC1 |  |  |  |  |  |  |  |  | TGI (MDA-N): > 100 µM
27 | O=C1c2cccnc2C(=O)C2C3C=CC(C3)C12 (stereo not drawn) |  |  |  |  |  |  |  |  | TGI (MDA-N): 13.2 µM
28 | CCOC(=O)c1c(-c2ccccc2)oc(-c2ccccc2)c1C(=O)OCC | > 100 | > 100 | > 100 | > 100 | > 100 | > 100 | > 100 |  | 
29 | CC(=O)N1c2ccccc2C2=CC3C4C(=O)N(c5ccccc5)C(=O)C4C21C1C(=O)N(c2ccccc2)C(=O)C31 (stereo not drawn) | 76.8 | 70 | > 100 | > 100 | 44.1 | > 100 |  |  | 
30 | CC[O-].CC[O-].O=C([CH-]C(=O)c1cccnc1)c1ccccc1.O=C([CH-]C(=O)c1cccnc1)c1ccccc1.[Ti+4] | 90.6 | > 100 | > 100 |  | > 100 | > 100 | > 100 | > 100 | GI50 (XF 498 CNS): 32.8 µM; GI50 (KM20L2 colon): 62 µM; GI50 (RXF-631 renal): 25.9 µM; GI50 (SNB-78 CNS): > 100 µM; GI50 (DMS 114 small cell lung): > 100 µM; GI50 (LXFL 529 NSCLC): 43.6 µM; GI50 (DMS 273 small cell lung): 68.6 µM
31 | COC(c1cccc(C(O)(C(F)(F)F)C(F)(F)F)c1)(C(F)(F)F)C(F)(F)F | 28.2 | 31.2 |  | 32.1 | 32.6 | 32 | 34.8 |  | 
32 | O=C(Nc1ccccc1)c1nn(-c2cc(S(=O)(=O)O)c([N+](=O)[O-])cc2Cl)[n+](-c2cc(S(=O)(=O)[O-])c([N+](=O)[O-])cc2Cl)n1 |  |  |  |  |  |  |  |  | TGI (MDA-N): > 100 µM
33 | O=C(O)C1=CCCc2ccc3ccccc3c21 | > 100 | > 100 | > 100 | > 100 | > 100 | > 100 | > 100 | > 100 | 
34 | O=C(CCC(=O)Nc1cccc(Cl)c1)CC(=O)c1ccc(F)cc1 | > 100 | > 100 | > 100 |  |  |  | > 100 |  | 
35 | Nc1nc(N)c(Cn2ccnc2)c(=O)[nH]1 |  |  |  |  |  |  |  |  | TGI (MDA-N): > 100 µM
36 | Cn1c2c(c3ccccc31)CCN(CCN1CCN(c3ccccc3)CC1)C2=O | 61.3 | > 100 |  | > 100 | > 100 | > 100 | > 100 | > 100 | 
37 | CCN(CC)CCCn1cnc2ncccc2c1=O |  |  | > 100 |  | > 100 | > 100 | > 100 |  | 
38 | C/C(=N\NC(N)=S)c1cc(C)c(C)cc1C | 50.3 | > 100 | > 100 | > 100 | 42.3 | > 100 | > 100 | > 100 | 
39 | CCC[CH2][Sn]([CH2]CCC)([O]C(=O)c1cc(F)ccc1F)[O][Sn]([CH2]CCC)([CH2]CCC)[O]C(=O)c1cc(F)ccc1F | 0.305 | 2.11 | 1.59 | 1.67 | 0.25 | 0.155 | 1.56 |  | GI50 (XF 498 CNS): 0.16 µM; GI50 (KM20L2 colon): 0.779 µM; GI50 (MDA-N): 0.239 µM; TGI (MDA-N): 1.46 µM; GI50 (SNB-78 CNS): 0.222 µM; GI50 (HOP-18 NSCLC): 0.654 µM; GI50 (DMS 114 small cell lung): 0.0832 µM; GI50 (LXFL 529 NSCLC): 0.0185 µM; GI50 (DMS 273 small cell lung): 0.331 µM
